The nature of data set [1]: serum stability (half-life) after intravenous injection in mice. Type of data set: in vivo. The note with it: 40 nmol, mouse serum, 0-24 hours, first-order kinetics fit, read-out: serum half-life T1/2 (converted). The protocol:
(§1) A Pearson's correlation coefficient of p=0.81 was measured from the merged image. […] B) An apparent dissociation constant of kd=43 nM, R^2=0.99 was measured for HPD*-IRDye800 binding to Hep3B cells. The equilibrium dissociation constant kd=1/ka was calculated by performing using a least square fit of the data to the non-linear equation I=(I0+ImaxKa[X])/(I0+Ka[X]). I0 and Imax are the initial and maximum fluorescence intensities, corresponding to no peptide and at saturation, respectively, and [X] represents the concentration of the bound peptide. Results are the mean values from 3 independent experiments. C) Peptide stability in mouse serum was measured by intravenously injecting HPD*-IRDye800 (200 μM in 200 μL of PBS) in mice (n=5). Serum was collected at various time points from 0-24 hours post-injection. The fluorescence intensity I(t) was measured and fit to a first-order kinetics model I(t)=Io+A×exp(−Bt).
The serum half-life of HPD*-IRDye800 was measured to assess peptide stability. HPD*-IRDye800 was injected intravenously in live mice. Fluorescence intensities were measured time points ranging from 0-24 hours, and fit to a first order kinetic model.

For data set [2], the system named is HCC micrometastases in lung. Description: detection of lung micrometastases (immunofluorescence). The arrangement: species or system mouse. The note with it: lung tissue sections of PDX tumor model mice. An excerpt:
D) Anti-cytokeratin stain confirms presence of human tumor (arrow). […] F) Corresponding histology (H&E) verifies HCC tumor in lung.
Immunofluorescence images were also collected from lung tissue sections of the PDX tumor model of HCC mice.

The nature of data set [3]: peptide toxicity, animal necropsy histology (H&E). To be noted: brain, heart, liver, spleen, lung, kidney, stomach, colon. In kind it is in vivo, mouse. The protocol: Mice were sacrificed at […].
Tumor bearing mice were euthanized on day 0 and 15 post-injection of the HPD*-IRDye800 and control peptides. Whole blood (~600 μL) was collected by cardiac puncture and submitted for standard hematology and chemistry. Major organs, including liver, kidney, heart, lung, spleen, stomach, intestine, and brain were resected, processed, and evaluated as routine histology (H&E). A total of 8 mice in each cohort were evaluated.

In data set [4] the target is T1, EpCAM (Homo sapiens, UniProt P16422).
T1 construct: endogenous in cells; host or cells: Hep3B human HCC cells (A1 also names human SG231 ICC cells)
T1 sequence (P16422 24-314): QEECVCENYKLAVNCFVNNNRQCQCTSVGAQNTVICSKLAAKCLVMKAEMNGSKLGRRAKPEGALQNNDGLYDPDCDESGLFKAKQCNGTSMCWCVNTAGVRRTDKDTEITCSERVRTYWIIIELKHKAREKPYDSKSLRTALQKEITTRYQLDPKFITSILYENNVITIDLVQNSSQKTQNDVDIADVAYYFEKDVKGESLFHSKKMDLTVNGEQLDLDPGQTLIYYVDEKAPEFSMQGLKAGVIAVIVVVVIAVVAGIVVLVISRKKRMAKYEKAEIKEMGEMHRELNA
Description: co-localization assay with anti-EpCAM-AF488 on Hep3B cells. In kind it is cell-based. As to the method:
as §1
Finally, specific binding of HPD*-IRDye800 to EpCAM was validated using a co-localization assay. Binding by HPD*-IRDye800 and anti-EpCAM-AF488 to the surface (arrows) of Hep3B cells co-localized with a correlation of p=0.81 measured on the merged image, FIG. 3A.

Data set [5] can be described thus: in vivo whole-body fluorescence imaging, PDX tumor model of HCC. The arrangement: species or system mouse. The note with it: mouse, in vivo, iv, 300 uM in 200 ul PBS, whole-body imaging up to 24 hours, read-out: time of peak T/B ratio post-injection. As to the method: (§2) A) Images were collected with excitation at λex=800 nm before (pre) and at 0, 0.5, 1.0, 1.25, 1.5, 2, 4 and 24 hours post-injection of HPD*-IRDye800. […] PFH*-IRDye800 was administered for use as control. […] B) The quantified T/B ratio confirms a peak uptake of HPD*-IRDye800 by tumor at 1.5 hours. The adjacent non-tumor tissue region with equal area to the tumor region was used for background.
(§3) Tumor-bearing mice [a patient-derived xenograft (PDX) tumor model of HCC] were injected intravenously with the HPD*-IRDye800 and control peptides (300 μM in 200 μl PBS). Unlabeled peptide and ICG were administrated as above. The spatial extent and margins of tumors were identified using a NIR whole-body fluorescence imaging system (Pearl®, LI-COR Biosciences) up to 24 h post injection. The images were acquired using λex=800 nm with 85 μm resolution and 16.8×12 cm^2 field of view (FOV). Image Studio software (Li-Cor Biosciences) was used for analysis. Regions of interest (ROI) with area equal to that of the tumor and adjacent in location was measured for background.

For data set [6], the system named is patient-derived xenograft (PDX) tumor model of HCC. The description is as above. Details: species or system mouse. The note with it: over 24 hours. As to the method:
as §2, §3

In a further data set the test system is human HCC specimens. As to the kind of experiment: immunofluorescence binding to human HCC specimens ex vivo. The protocol:
Binding of HPD*-IRDye800 to human HCC specimens and metastatic lymph nodes ex vivo was examined using immunofluorescence.
The merged images show co-localization of peptide and antibody binding to HCC and normal liver, and a Pearson's correlation coefficient of p=0.68 and 0.66, respectively, were calculated. […] Results were compared with histology evaluated by an expert liver pathologist.

Data set [7] concerns human HCC Hep3B xenograft tumors. As to the kind of experiment: in vivo NIR fluorescence imaging of orthotopic Hep3B xenograft tumors.
Description: A total of n=8 animals were studied per group. […] P-values were calculated using a one-way ANOVA model. Background was defined as the adjacent non-tumor region with equal area of the tumor region.
Another data set can be described thus: in vivo. The note with it: mouse, iv, 150 µM, 200 uL.
For another data set, the system named is human HCC tumor. As to the kind of experiment: ex vivo immunofluorescence of resected xenograft liver sections. The arrangement: species or system mouse. The note with it: immunofluorescence on resected liver sections. An excerpt:
After imaging was completed as described in Example 6, the mice were euthanized, and the livers were resected, formalin-fixed, and sectioned to confirm EpCAM expression in human […] tumors. […] The merged image confirms co-localization of peptide and antibody binding to HCC tumor but not to normal mouse liver, FIG. 8D.

Data set [8] concerns the target T1, EpCAM. As to the kind of experiment: siRNA knockdown validation of binding (confocal microscopy). To be noted: for fluorescence intensity / cell surface staining, siEpCAM versus siCL: Hep3B (EpCAM+) cells, siRNA against EpCAM vs control siRNA. Type of data set: cell-based. As to the method: (§4) An ANOVA was fit with terms for 3 treatments, 2 siRNA effects, and their interactions using slides in triplicate. […] Fluorescence intensities were measured from 10 cells chosen randomly from 3 slides. * P<0.01 by pairwise comparisons.
Specific binding of HPD*-IRDye800 to EpCAM was validated using siRNA knockdown in human SG231 (EpCAM+) ICC cells. Preliminary data were obtained using Hep3B (EpCAM+) human HCC cells. The cells were treated with siRNA against EpCAM (siEpCAM) and control siRNA (siCL).

The target of data set [9] is T1, EpCAM. As to the kind of experiment: competition assay with unlabeled peptide. Type of data set: cell-based. To be noted: unlabeled competitor added at 0-120 mM. The protocol:
as §4
Specific binding of HPD*-IRDye800 to EpCAM was also validated using a competition assay. Unlabeled HPD* was added to compete for binding with IRDye800-labeled HPD* with concentrations ranging from […].

The target of data set [10] is T2, Epithelial cell adhesion molecule (EpCAM) (human, UniProt P16422 24-314).
T2 construct: whole, on cells; also called human EpCAM
T2 sequence (looked up): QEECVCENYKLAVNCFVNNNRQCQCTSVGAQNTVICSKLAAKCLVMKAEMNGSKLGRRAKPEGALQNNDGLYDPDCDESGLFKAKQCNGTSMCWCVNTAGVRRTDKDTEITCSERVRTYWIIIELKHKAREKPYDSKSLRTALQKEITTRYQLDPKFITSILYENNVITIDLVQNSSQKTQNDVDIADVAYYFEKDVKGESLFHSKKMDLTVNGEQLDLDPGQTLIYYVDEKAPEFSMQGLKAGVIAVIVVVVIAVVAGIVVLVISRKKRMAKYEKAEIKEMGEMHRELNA
As to the kind of experiment: flow cytometry, HPD*-IRDye800 0-200 nM on Hep3B cells; apparent dissociation constant. For orientation: Flow cytometry measures light scatter and fluorescence of single cells or particles in a stream.

The values that follow come from patent publication US20260199529A1, “EPITHELIAL CELL ADHESION MOLECULE-SPECIFIC PEPTIDE CONJUGATES AND METHODS” (REGENTS OF THE UNIVERSITY OF MICHIGAN, priority 2022, published 2026).

“Also recorded” adds a separate entry of the source. Where a SMILES comes first, the peptide text is derived from it. Where no end group is shown, it is not given here. The star is where a group is joined. X1 = CC1(C)C(=CC=C2CCCC(C=CC3=[N+](CCCCS(=O)(=O)[O-])c4ccc(S(=O)(=O)O)cc4C3(C)C)=C2Oc2ccc(S(=O)(=O)O)cc2)N(CCCCCC(=O)NCCN2C(=O)CC(*)C2=O)c2ccc(S(=O)(=O)O)cc21

As for `CSCC[C@H](NC(=O)[C@H](CC(=O)O)NC(=O)[C@@H]1CCCN1C(=O)[C@@H](N)Cc1c[nH]cn1)C(=O)N[C@@H](Cc1ccccc1)C(=O)N[C@H](C(=O)N[C@@H](CCCNC(=N)N)C(=O)N[C@H](C(=O)N[C@@H](Cc1c[nH]cn1)C(=O)N[C@@H](CO)C(=O)N[C@@H](Cc1c[nH]cn1)C(=O)N[C@@H](CC(N)=O)C(=O)NCC(=O)NCC(=O)NCC(=O)N[C@@H](CO)C(=O)N[C@@H](CSC1CC(=O)N(CCNC(=O)CCCCCN2C(=CC=C3CCCC(C=CC4=[N+](CCCCS(=O)(=O)[O-])c5ccc(S(=O)(=O)O)cc5C4(C)C)=C3Oc3ccc(S(=O)(=O)O)cc3)C(C)(C)c3cc(S(=O)(=O)O)ccc32)C1=O)C(N)=O)[C@@H](C)O)[C@@H](C)O` (some centres unmarked) [HPD*-IRDye800] (H-HPDMFTRTHSHNGGGSC(X1)-NH2; N-terminus and C-terminus assumed), the half-life in data set [1] is 2.6 h. Moreover, in data set [2], the “detection of / binding to HCC micrometastases in lung” value is given as “detected very small tumor volumes in the form of micrometastases; also recorded: strong binding”. Moreover, the “acute toxicity on histology (H&E) of vital organs” value in [3] is listed as “No signs of acute toxicity”. In addition, the “binding to the surface of Hep3B human HCC cells” value at EpCAM [4] (confocal microscopy) is “bind intensely”. In addition, the “Pearson's correlation coefficient, co-localization with anti-EpCAM-AF488” value on EpCAM [4] (merged image, Hep3B cells) was found to be 0.81; in the data set on human HCC specimens (human HCC sections), 0.68; in the data set with human HCC specimens (normal human liver sections), 0.66. Besides, the tissue to tissue ratio (in data set [5]; in the data set “in vivo”) was 1.5 each time. Moreover, the “tumor uptake / T/B ratio in whole-body images” value (“tumor uptake / T/B ratio” below) in data set [6] is “greater uptake”. For the same molecule, the “fold increase in mean fluorescence intensity, HCC versus normal human liver” value in the data set with human HCC specimens (HCC n=36, normal n=12) is 2.6 fold. Further, the “AUC of ROC curve, HCC versus normal” value in the data set on human HCC specimens (human specimens ex vivo) is listed as 0.81. Moreover, the “sensitivity to distinguish HCC from normal (ROC)” value with human HCC specimens (human specimens ex vivo) amounted to 85%. Further, the “specificity to distinguish HCC from normal (ROC)” value with human HCC specimens (human specimens ex vivo) stood at 66%. In addition, in the data set on human HCC specimens (immunofluorescence), the “mean fluorescence intensity, binding to HCC versus normal human liver” value is recorded as “significantly greater”. Also, the “staining of the surface of human HCC cells” value in the data set with human HCC specimens (immunofluorescence, human specimens) is listed as “Intense staining; also recorded: strong staining”. The “time to near complete clearance / signal back to baseline” value in data set [7] (Hep3B xenograft tumors, post-injection) is ~ 48 hours. Moreover, the “NIR fluorescence intensity of tumor versus PFH*-IRDye800” value in data set [7] ([…] post-injection, Hep3B xenograft) is “significantly greater”. The “mean tumor intensity, fold greater than PFH*-IRDye800” value in data set [7] ([…] post-injection, tail vein, Hep3B xenograft) is listed as greater than 3.2 fold. The “staining of HCC tumor cell surface (but not normal mouse liver)” value in the data set on human HCC tumor is recorded as “strong staining; also recorded: Bright fluorescence”. Besides, the “fluorescence intensity / cell surface staining, siEpCAM versus siCL” value at EpCAM [8] was “Decreased cell surface staining; also recorded: reduced intensity”. For the same molecule, the “binding to the surface of siCL (control) Hep3B cells” value at EpCAM [8] (confocal microscopy, control siRNA Hep3B cells) is “strong binding”.

In the case of `CC1(C)C(/C=C/C=C/C=C/C=C2\N(CCCCS(=O)(=O)[O-])c3ccc4ccccc4c3C2(C)C)=[N+](CCCCS(=O)(=O)[O-])c2ccc3ccccc3c21.[Na+]` [ICG, reference compound], the “tumor uptake / T/B ratio” value in [6] is on record as “non-specific uptake”. The “time of peak uptake / peak T/B ratio post-injection” value in data set [7] (Hep3B xenograft tumors, imaged 0-48 hours) is recorded as “over 48 hours”.

As to “HPDMFTRTHSHN [HPD*, Optimized EpCAM-specific peptide, unlabeled]”, the “tumor uptake / T/B ratio” value in data set [6] is “reduced values”. Moreover, in the data set with EpCAM [9], the “mean fluorescence intensity from HPD*-IRDye800 with competition from unlabeled peptide” value was “Decreased intensity; also recorded: decreased significantly”. In addition, the “fluorescence intensity / cell surface staining, siEpCAM versus siCL” value with EpCAM [8] was “significantly greater signal for siCL versus siEpCAM”.

Take “PFHDMHSNHTRT [PFH*, Unlabeled scrambled peptide (control), reference compound]”: in the data set with EpCAM [8], the “fluorescence intensity / cell surface staining, siEpCAM versus siCL” value was “non-significant difference”.

B1: HPD*-IRDye800 (peptide)
peptide: HPDMFTRTHSHNGGGSC
modifications: also: IRDye800 attached via C-terminal GGGSC linker
notes: also called IRDye800-labeled HPD*; EpCAM-specific peptide conjugate
In the case of B1, the Kd in [10] was determined as 43 nM.
